# From article PMC4332533 (Neuropharmacology, 2014)
# Several values for one entry are separate records, joined by “and”; a condition that tells them apart may be missing. Equal entries are not always repeated. Where two headings read alike, the source gives them in different places.
# How the values were obtained:
# α3S125Cβ2Q39C receptor [1] = target: T1, α3S125Cβ2Q39C receptor (Rattus norvegicus, UniProt P04757+P12390, Q65C/S152C); experiment: Disulfide cross-linking experiments; format: cell-based
# α3E173Cβ2R46C receptor = α3E173Cβ2R46C receptor (Rattus norvegicus, UniProt P04757+P12390, E200C/R46C); experiment: Disulfide cross-linking experiments; format: cell-based
# α3Q37Cβ2A127C receptor [2] = target: T2, α3Q37Cβ2A127C receptor (Rattus norvegicus, UniProt P04757+P12390, A153C/Q64C); experiment: Disulfide cross-linking experiments; format: cell-based
# α3Y168Cβ2D190C receptor [3] = target: T3, α3Y168Cβ2D190C receptor (Rattus norvegicus, UniProt P04757+P12390, D216C/Y195C); experiment: Disulfide cross-linking experiments; format: cell-based
# α3S125Cβ2 receptor [4] = target: T4, α3S125Cβ2 receptor (Rattus norvegicus, UniProt P04757+P12390, S152C); experiment: Disulfide cross-linking experiments; format: cell-based; settings: H2O2 oxidation treatment (Supplemental Fig. S3C)
# wild type α3β2 receptor [5] = target: T5, wild type α3β2 receptor (Rattus norvegicus, UniProt P04757+P12390); experiment: Disulfide cross-linking experiments; format: cell-based; settings: 5 min 4.4 mM H2O2 alone; 300 µM ACh ± 10 µM Mor
# α3Y168Fβ2 receptor = α3Y168Fβ2 receptor (Rattus norvegicus, UniProt P04757+P12390, Y195F); experiment: Macroscopic evoked currents, two-electrode voltage-clamp, Xenopus laevis oocytes; format: cell-based
# wild type α3β2 receptor [6] = target: T5, wild type α3β2 receptor; settings: Mor alone, cited from earlier work
# α3Q37Cβ2A127C receptor [7] = target: T2, α3Q37Cβ2A127C receptor; experiment: Macroscopic evoked currents, two-electrode voltage-clamp, Xenopus laevis oocytes; format: cell-based; settings: mutation-modulator Ɽ from EC50s vs wild type; 10 µM Mor
# α3S125Yβ2A127Y receptor = α3S125Yβ2A127Y receptor (Rattus norvegicus, UniProt P04757+P12390, A153Y/S152Y); experiment: as above; format: cell-based
# α3β2A127Y receptor = α3β2A127Y receptor (Rattus norvegicus, UniProt P04757+P12390, A153Y); experiment: as above; format: cell-based
# wild type α3β2 receptor [8] = target: T5, wild type α3β2 receptor; experiment: as above; format: cell-based; settings: 10 µM Mor; 300 µM ACh; control measurement before oxidation (Fig. 2)
# α3β2W149A receptor = settings: Mor alone; relative to saturating ACh; no Hill fit possible; cited from earlier work
# α3S125Cβ2Q39C receptor [9] = target: T1, α3S125Cβ2Q39C receptor; experiment: Macroscopic evoked currents, two-electrode voltage-clamp, Xenopus laevis oocytes
# α3β2A127C receptor = α3β2A127C receptor (Rattus norvegicus, UniProt P04757+P12390, A153C); experiment: as above; format: cell-based; settings: mutation-modulator Ɽ from EC50s vs wild type; 10 µM Mor
# α3E173Aβ2 receptor = α3E173Aβ2 receptor (Rattus norvegicus, UniProt P04757+P12390, E200A); experiment: as above; format: cell-based
# α3Q37Cβ2 receptor = α3Q37Cβ2 receptor (Rattus norvegicus, UniProt P04757+P12390, Q64C); experiment: as above; format: cell-based; settings: mutation-modulator Ɽ from EC50s vs wild type; 10 µM Mor
# α3β2R46V receptor = α3β2R46V receptor (Rattus norvegicus, UniProt P04757+P12390, R72V); experiment: as above; format: cell-based; settings: Mor alone; relative to saturating ACh; no Hill fit possible
# α3Y168Cβ2D190C receptor [10] = target: T3, α3Y168Cβ2D190C receptor; experiment: as above; format: cell-based
# α3S125Yβ2 receptor = α3S125Yβ2 receptor (Rattus norvegicus, UniProt P04757+P12390, S152Y); experiment: as above
# α3β2D190C receptor = α3β2D190C receptor (Rattus norvegicus, UniProt P04757+P12390, D216C); experiment: as above; format: cell-based; settings: for potentiation of ACh-evoked currents: 10 µM modulator (Fig. 3B)
# α3Y168Fβ2D190Q receptor = α3Y168Fβ2D190Q receptor (Rattus norvegicus, UniProt P04757+P12390, D216Q/Y195F); experiment: as above; format: cell-based; settings: mutation-modulator Ɽ from EC50s vs wild type
# α3S125Yβ2W149A receptor = α3S125Yβ2W149A receptor (Rattus norvegicus, UniProt P04757+P12390, S152Y/W175A); experiment: as above; format: cell-based
# α3β2Q39C receptor = α3β2Q39C receptor (Rattus norvegicus, UniProt P04757+P12390, Q65C); experiment: as above; format: cell-based; settings: mutation-modulator Ɽ from EC50s vs wild type; 10 µM Mor
# α3S125Cβ2 receptor [11] = target: T4, α3S125Cβ2 receptor; experiment: as above; format: cell-based
# α3E173Aβ2R46V receptor = α3E173Aβ2R46V receptor (Rattus norvegicus, UniProt P04757+P12390, E200A/R46V); experiment: as above; format: cell-based; settings: mutation-modulator Ɽ from EC50s vs wild type; 10 µM Mor
# α3β2D190Q receptor = α3β2D190Q receptor (Rattus norvegicus, UniProt P04757+P12390, D216Q); experiment: as above; format: cell-based; settings: mutation-modulator Ɽ from EC50s vs wild type
# α3Y168Cβ2 receptor = α3Y168Cβ2 receptor (Rattus norvegicus, UniProt P04757+P12390, Y195C); experiment: as above; format: cell-based; settings: mutation-modulator Ɽ from EC50s vs wild type; 10 µM Oxa
# [12] = 10 µM Mor, saturating nicotine, 10 µM epibatidine (Fig. 8)
# [13] = Mor alone, relative to saturating ACh
# [14] = mutation-modulator Ɽ from EC50s vs wild type, 10 µM Mor
# [15] = mutation-modulator Ɽ from EC50s vs wild type, 10 µM Oxa
# T2 sequence (P04757 26-499 Q64C): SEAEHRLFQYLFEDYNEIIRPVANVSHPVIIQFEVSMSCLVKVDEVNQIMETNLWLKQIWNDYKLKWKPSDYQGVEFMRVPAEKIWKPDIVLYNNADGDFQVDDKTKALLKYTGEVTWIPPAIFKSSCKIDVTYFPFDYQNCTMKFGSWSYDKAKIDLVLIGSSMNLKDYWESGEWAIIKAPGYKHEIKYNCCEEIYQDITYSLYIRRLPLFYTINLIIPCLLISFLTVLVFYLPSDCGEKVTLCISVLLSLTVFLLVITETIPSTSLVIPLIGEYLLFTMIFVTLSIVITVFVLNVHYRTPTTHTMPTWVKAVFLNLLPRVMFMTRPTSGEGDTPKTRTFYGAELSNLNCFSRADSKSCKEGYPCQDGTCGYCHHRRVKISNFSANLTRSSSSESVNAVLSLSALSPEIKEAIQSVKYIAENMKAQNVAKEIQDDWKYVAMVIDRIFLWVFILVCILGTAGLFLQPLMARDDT
# T2 sequence (P12390 25-500 A153C): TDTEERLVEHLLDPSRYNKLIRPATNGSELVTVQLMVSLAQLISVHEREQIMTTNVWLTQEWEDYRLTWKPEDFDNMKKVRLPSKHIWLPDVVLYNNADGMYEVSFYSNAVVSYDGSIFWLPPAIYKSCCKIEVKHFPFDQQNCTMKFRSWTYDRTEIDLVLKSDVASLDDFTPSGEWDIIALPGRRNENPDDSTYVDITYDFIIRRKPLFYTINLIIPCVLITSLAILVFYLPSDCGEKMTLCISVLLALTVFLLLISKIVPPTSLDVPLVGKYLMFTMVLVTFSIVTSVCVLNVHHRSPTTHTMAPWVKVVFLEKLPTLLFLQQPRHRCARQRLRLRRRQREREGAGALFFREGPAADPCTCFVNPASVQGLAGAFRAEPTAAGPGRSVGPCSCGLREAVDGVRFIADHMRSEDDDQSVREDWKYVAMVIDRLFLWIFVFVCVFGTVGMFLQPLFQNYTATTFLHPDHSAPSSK
# T3 sequence (P04757 26-499 Y195C): as the sequence (P04757 26-499 Q64C) above, with C39Q, Y170C counted along it
# T3 sequence (P12390 25-500 D216C): as the sequence (P12390 25-500 A153C) above, with C129A, D192C counted along it
# T5 sequence (P04757 26-499): as the sequence (P04757 26-499 Q64C) above, with C39Q counted along it
# T5 sequence (P12390 25-500): as the sequence (P12390 25-500 A153C) above, with C129A counted along it
# Sequence of α3β2A127Y receptor (P04757 26-499): as the sequence (P04757 26-499 Q64C) above, with C39Q counted along it
# Sequence of α3β2A127Y receptor (P12390 25-500 A153Y): as the sequence (P12390 25-500 A153C) above, with C129Y counted along it
# Sequence of α3β2D190C receptor (P04757 26-499): as the sequence (P04757 26-499 Q64C) above, with C39Q counted along it
# Sequence of α3β2D190C receptor (P12390 25-500 D216C): as the sequence (P12390 25-500 A153C) above, with C129A, D192C counted along it
compound,measurement,setting,value
"O[C@@H](CS)[C@@H](O)CS (racemic) [DTT, dithiothreitol]",reduction of the disulfide bond after oxidation,α3S125Cβ2Q39C receptor [1]; 40–100 µM DTT after H2O2 (Fig. 6),effective resistance
same,change of currents upon reduction following oxidation,α3E173Cβ2R46C receptor; DTT after H2O2 (Supplemental Fig. S4),"did decrease currents, but not completely to the control level"
same,reduction of the disulfide bond after oxidation,α3Q37Cβ2A127C receptor [2]; 40 µM DTT after oxidation (Fig. 7),essentially resistant
same,reversal of oxidation-induced current decrease by reduction,α3Y168Cβ2D190C receptor [3]; subsequent DTT treatment (Supplemental Fig. S2B),completely reversed
OO [H2O2],"decrease of currents evoked by ACh, ACh + Mor and Mor alone upon oxidation","α3S125Cβ2Q39C receptor [1]; 4.4 mM H2O2 alone, 300 µM ACh, 300 µM ACh + 10 µM Mor, 10 µM Mor (Fig. 6)",62–89%
same,decrease of IACh upon oxidation,"α3S125Cβ2Q39C receptor [1]; 5 min 4.4 mM H2O2 alone, current evoked by 300 µM ACh",60%
same,decrease of IACh+Mor upon oxidation,"α3S125Cβ2Q39C receptor [1]; 5 min 4.4 mM H2O2 alone, current evoked by 300 µM ACh + 10 µM Mor",80% and 90%
same,change of currents upon oxidation,α3E173Cβ2R46C receptor; H2O2 alone (Supplemental Fig. S4),significantly increased currents
same,"change of currents evoked by ACh alone, ACh + Mor and Mor alone upon oxidation","α3Q37Cβ2A127C receptor [2]; 4.4 mM H2O2 alone or with 100 µM ACh + 10 µM Mor, 1 mM ACh, 10 µM Mor (Fig. 7)",all increased
same,change in evoked currents upon oxidation,α3S125Cβ2 receptor [4],no changes
same,effect of oxidizing treatment on evoked currents,wild type α3β2 receptor [5],unaffected
same,reduction of evoked currents following oxidation,α3Y168Cβ2D190C receptor [3]; H2O2 treatment (abstract),up to 50%
same,"Ioxidation/Icontrol, final fraction of current remaining at long times",α3Y168Cβ2D190C receptor [3]; oxidation onset kinetics (Supplemental Fig. S2A),0.61 ± 0.05
"Cc1ccsc1C=CC1=NCCCN1C.O=C(O)C(O)C(O)C(=O)O [Mor, 1,4,5,6-tetrahydro-1-methyl-2-(2-[3-methyl-2-thienyl]ethenyl)pyrimidine, tartrate salt]",decrease in EC50 for Mor modulation vs wild type,"α3Y168Fβ2 receptor; ACh + 10 µM Mor EC50 comparison, Table 1",70 fold
same,nH (Mor Activation),wild type α3β2 receptor [6]; Hill fit,3.1 ± 1.6
same,Emax (Mor Activation),wild type α3β2 receptor [6]; relative to saturating ACh,0.2 and 0.20 ± 0.04
same,EC50,"wild type α3β2 receptor [6]; read-out: EC50 (Mor Activation), Hill fit",20 ± 2 µM
same,R(mut-Mor),α3Q37Cβ2A127C receptor [7],1.7
same,EC50,α3S125Yβ2A127Y receptor,1.9 ± 0.2 µM
same,effect on ACh responses,"α3S125Yβ2A127Y receptor; 10 µM Mor, 300 µM ACh (Fig. 8)",modestly potentiated
same,effect on responses evoked by nicotine and epibatidine,α3S125Yβ2A127Y receptor; [12],inhibited
same,nH (Mor Activation),"α3S125Yβ2A127Y receptor; Mor alone, Hill fit",3.18 ± 0.63
same,Emax (Mor Activation),α3S125Yβ2A127Y receptor; [13],0.16 ± 0.01 [3]
same,R(mut-Mor),α3S125Yβ2A127Y receptor; [14],1.2
same,Ω (Mor alone activation),α3S125Yβ2A127Y receptor; thermodynamic cycle α3S125Y-β2A127Y from Mor alone EC50s,3.4
same,EC50,α3β2A127Y receptor,4.8 ± 2.4 µM
same,response to Mor alone,α3β2A127Y receptor; 10 µM Mor alone (Fig. 8),nearly negligible current
same,effect on ACh responses,"α3β2A127Y receptor; 10 µM Mor, 300 µM ACh (Fig. 8)",modestly potentiated
same,effect on responses evoked by nicotine and epibatidine,α3β2A127Y receptor; [12],inhibited
same,nH (Mor Activation),"α3β2A127Y receptor; Mor alone, Hill fit",1.08 ± 0.40
same,Emax (Mor Activation),α3β2A127Y receptor; [13],0.05 ± 0.01 [5]
same,R(mut-Mor),α3β2A127Y receptor; [14],9.4
same,potentiation (IACh+Mor/IACh),wild type α3β2 receptor [8],greater than 2.5 fold
same,Emax (Mor Activation),α3β2W149A receptor,0.015 ± 0.004 [3]
same,EC50,α3S125Cβ2Q39C receptor [9],0.53 ± 0.21 µM
same,potentiation (IACh+Mor/IACh),"α3S125Cβ2Q39C receptor [9]; 10 µM Mor, 300 µM ACh, control measurement before oxidation (Fig. 2)",greater than 2.5 fold
same,nH (Mor Activation),"α3S125Cβ2Q39C receptor [9]; Mor alone, Hill fit",0.92 ± 0.30 [4–8]
same,Emax (Mor Activation),α3S125Cβ2Q39C receptor [9]; [13],1.00 ± 0.14
same,R(mut-Mor),α3S125Cβ2Q39C receptor [9]; [14],4.5
same,R(mut-Mor),α3β2A127C receptor,3.3
same,Emax (Mor Activation),"α3E173Aβ2 receptor; Mor alone, relative to saturating ACh, no Hill fit possible",0.16 ± 0.01 [4]
same,R(mut-Mor),α3E173Aβ2 receptor; [14],1.4
same,R(mut-Mor),α3Q37Cβ2 receptor,5.3
same,Emax (Mor Activation),α3β2R46V receptor,0.03 ± 0.01 [7]
same,potentiation (IACh+Mor/IACh),"α3Y168Cβ2D190C receptor [10]; 10 µM Mor, 1 mM ACh, control measurement before oxidation (Fig. 2)",greater than 2.5 fold
same,R(mut-Mor),"α3Y168Cβ2D190C receptor [10]; Ɽ=EC50(WT,A)·EC50(mut,A+M)/EC50(WT,A+M)·EC50(mut,A), M = 10 µM Mor",0.52
same,EC50,α3S125Yβ2 receptor,2.3 ± 0.7 µM
same,response to Mor alone,"α3S125Yβ2 receptor; 10 µM Mor alone (Fig. 8, Fig. 5A)",full agonist
same,effect on ACh responses,"α3S125Yβ2 receptor; 10 µM Mor, 300 µM ACh (Fig. 8)",modestly potentiated
same,effect on responses evoked by nicotine and epibatidine,α3S125Yβ2 receptor; [12],inhibited
same,decrease in EC50 for Mor modulation vs wild type,α3S125Yβ2 receptor; ACh + 10 µM Mor EC50 comparison,1000 fold
same,Emax (Mor Activation),α3S125Yβ2 receptor; [13],1.7 and 1.69 ± 0.27
same,R(mut-Mor),α3S125Yβ2 receptor; [14],0.0076
same,potentiation of ACh-evoked currents,α3β2D190C receptor,eliminated
same,R(mut-Mor),α3β2D190C receptor; [14],10
same,R(mut-Mor),α3Y168Fβ2D190Q receptor; 10 µM Mor,0.57
same,EC50,α3S125Yβ2W149A receptor,25 ± 9 µM
same,nH (Mor Activation),"α3S125Yβ2W149A receptor; Mor alone, Hill fit",1.01 ± 0.29 [5–6]
same,Emax (Mor Activation),α3S125Yβ2W149A receptor; [13],0.21 ± 0.02
same,R(mut-Mor),α3S125Yβ2W149A receptor; [14],7.2
same,R(mut-Mor),α3β2Q39C receptor,0.10
same,EC50,α3S125Cβ2 receptor [11],92 ± 33 µM
same,nH (Mor Activation),"α3S125Cβ2 receptor [11]; Mor alone, Hill fit",0.54 ± 0.11 [4]
same,Emax (Mor Activation),α3S125Cβ2 receptor [11]; [13],0.028 ± 0.006
same,R(mut-Mor),α3S125Cβ2 receptor [11]; [14],1.3
same,R(mut-Mor),α3E173Aβ2R46V receptor,9.0
same,R(mut-Mor),α3β2D190Q receptor; 10 µM Mor,7.1
"CN1CCCN=C1/C=C/c1cccc(O)c1 [Oxa, 1-methyl-2-(3-hydroxyphenylethenyl)-1,4,5,6-tetrahydropyrimidine with 4,4’-methylenebis(3-hydroxy-2-naphthoic acid)]",R(mut-Oxa),α3Y168Fβ2 receptor; [15],1.5
same,R(mut-Oxa),α3Y168Cβ2 receptor,1.2
same,R(mut-Oxa),α3Y168Cβ2D190C receptor [10]; [15],1.9
same,potentiation of ACh-evoked currents,α3β2D190C receptor,eliminated
same,R(mut-Oxa),α3β2D190C receptor; [15],19
same,R(mut-Oxa),α3Y168Fβ2D190Q receptor; 10 µM Oxa,1.6
same,R(mut-Oxa),α3β2D190Q receptor; 10 µM Oxa,19
Clc1ccc(C2CC3CCC2N3)cn1 (stereo not shown) [epibatidine],efficacy compared with ACh,α3S125Yβ2 receptor; saturating agonist (Fig. 8),greater efficacy
CN1CCC[C@H]1c1cccnc1 [nicotine],efficacy compared with ACh,α3S125Yβ2 receptor,greater efficacy
